Entries after “also recorded” stand apart in the source; their conditions may differ.
How the values were obtained:
[1] = system: Jurkat T cells; test: DNA fragmentation (sub-diploid DNA) by PI staining and flow cytometry; type: cell-based, human; conditions: for cells exhibiting DNA fragmentation (sub-diploid DNA levels): 690 nm light 5 J/cm^2, analysis 24 hours later
Description: (§1) The human Jurkat T cell line containing a neomycin resistance gene was obtained from Dr. Charles Rudin (University of Chicago). Cells were maintained in RPMI 1640 medium containing 10% heat-inactivated fetal calf serum (FCS) with penicillin (100 U/mL), streptomycin (100 μg/mL), 20 mM HEPES, 2 mM L-glutamine and G418 (1 μg/ml) purchased from Gibco BRL (Burlington, Ontario) in a CO2 incubator at 37° C. To elicit apoptosis with PDT, Jurkat cells were incubated with different amounts of liposomally formulated benzoporphyrin derivative monoacid ring A (BPD-MA, verteporfin, QLT PhotoTherapeutics, Inc., Vancouver, Canada) for one hour at 37° C. under light-protected conditions. The culture medium used for experiments was identical to that used for the passage of the cells except that FCS was used at a concentration of 5%. Experiments were conducted either in 6-well culture plates at 5×10^6 cells in a volume of 4 ml per well or in 96-well microtiter plates at 1×10^5 cells per well at 0.2 ml per well. Cells were irradiated with light of a wavelength of 690 nm delivered at 65-73 mW/sec from light emitting diodes (LED) to achieve a total light dose of 5 J/cm^2. Cells were returned to the incubator until required for analysis.
(§2) FasL and TRAIL as used were recombinant preparations. FasL was obtained from Upstate Biotechnology (Lake Placid NY) and corresponded to amino acids 103-281 of the soluble domain of human FasL. TRAIL was obtained from BIOMOL Research Laboratories (Plymouth Meeting, Pa.) and corresponded to residues 114-281 of the soluble domain of human TRAIL. FasL and TRAIL were usually added immediately following the treatment of cells with PDT, although in one series of experiments these factors were added at 1, 2 or 3 hours post-irradiation.
The proportion of cells containing sub-diploid levels of DNA 24 hours following treatment was determined using a propidium iodide (“PI”) fluorescence analysis procedure as described by Telford et al. (“Rapid Quantitation of Apoptosis in Pure and Heterogeneous Cell Populations Using Flow Cytometry” J. Immunol Methods 172:1-6 (1994)) or by Darzynkieicz et al. (“Features of Apoptotic Cells Measured by Flow Cytometry”, Cytometry, 13:795-808 (1992)).
Twenty four hours following PDT, 5×10^5 cells were washed twice with ice-cold PBS and then permeablized and fixed in 80% ethanol at 4° C. for one hour. The cells were again washed in ice-cold PBS and stained with PI (50 μg/mL) in PBS with simultaneous deoxyribose nuclease-free ribonuclease A (5 U/mL) treatment. These samples were analyzed by flow cytometry. The percentage of apoptotic cells was calculated using single color analysis for PI fluorescence with a Coulter XL flow cytometer (Coulter Electronics, Inc., Hialeah, Fla.). […] The degree of separation between the apoptotic population and the G0/G1 peak is readily apparent and the percentage of apoptotic cells is determined from the subsequent histogram.

[2] = system: caspase-3, -6, -8 and -9 and PARP; test: Western immunoblot of caspase processing and PARP cleavage in Jurkat cells; type: cell-based, human
Description: as §1, §2
Whole cell lysates were prepared by washing 1×10^7 cells per sample twice with ice-cold PBS. Cells were disrupted with 1 mL of lysis buffer [1% Nonidet P-40 detergent (NP-40), 20 mM Tris-HCl, pH 8.0, 137 mM NaCl, 10% glycerol, 1 mM phenylmethylsulfonyl fluoride (PMSF) aprotinln (0.15 U/mL) and 1 mM sodium orthovanadate] for 20 minutes on ice. Lysates were centrifuged for 10 minutes at 15,800×g at 4° C.
To evaluate the activation state of different caspases and the status of other cellular proteins, whole cell lysates were separated by sodium dodecyl sulphate polyacrylamide gel electrophoresis (SDS-PAGE). Specifically, detergent-soluble proteins were separated by SDS-PAGE within 10% gels under reducing conditions as described by Laemmli et al. (“Cleavage of Structural Proteins During the Assembly of the Head of Bacteriophage T4”, Nature, 227, 680-685 (1970)). The proteins were transferred to nitrocellulose membranes at 100 volts for one hour. […]

Substance	cells exhibiting DNA fragmentation relative to cells treated with light alone ([1]; verteporfin 2 ng/ml, light 5 J/cm^2, 24 hours)	cells exhibiting DNA fragmentation (sub-diploid DNA levels) ([1]; verteporfin 5 ng/ml)	cells exhibiting DNA fragmentation (sub-diploid DNA levels) ([1]; verteporfin 15 ng/ml)	caspase processing after PDT alone ([2]; increasing verteporfin concentrations, 5 J/cm^2, 3 hours after irradiation)	caspase-3, -8, -9 and PARP processing after PDT alone ([2]; verteporfin 5 ng/ml, 5 J/cm^2, 3 hours (FIG. 8))	increase in proportion of cells with sub-diploid DNA versus light-treated control cells ([1]; TRAIL 20 ng/ml added after PDT with verteporfin 2 ng/ml, 5 J/cm^2, 24 hours)	increase in the number of cells displaying DNA fragmentation ([1]; TRAIL 20 ng/ml by itself, 24 hours (FIG. 2))	proportion of cells with sub-diploid DNA compared with PDT alone ([1]; TRAIL 20 ng/ml or FasL 7.5 ng/ml added after PDT with verteporfin 0.5 and 1 ng/ml)	nature of the combined effect on DNA fragmentation ([1]; TRAIL 20 ng/ml with PDT (verteporfin 2 ng/ml) versus each alone)	cells with induced DNA fragmentation ([1]; TRAIL 1000 ng/ml, within 24 hours)	DNA fragmentation induced by the factor without PDT across addition times ([1]; added at 5 minutes, 1, 2 or 3 hours, FasL 7.5 ng/ml, TRAIL 20 ng/ml, individually or in combination)	change of the combined effect with PDT on DNA fragmentation ([1]; factor added at 3 hours post-PDT (verteporfin 2 ng/ml))	capacity to accentuate PDT-mediated apoptosis (DNA fragmentation) ([1]; factor added up to 3 hours after PDT (verteporfin 2 ng/ml), FasL 7.5 ng/ml, TRAIL 20 ng/ml)	caspase processing and PARP degradation compared with PDT or the factor alone ([2]; FasL 7.5 ng/ml or TRAIL 20 ng/ml combined with verteporfin PDT, 3 hours)	processing of caspases and PARP by the factor alone ([2]; FasL 7.5 ng/ml or TRAIL 20 ng/ml, 3 hours)
benzoporphyrin derivative monoacid ring A [verteporfin, reference compound]	Five times	a minor proportion of cells	the vast majority of cells	evidence of caspase-3, -6, -8 and -9 processing; also recorded: processing of caspases-3, -6, -8 and -9	a moderate degree										
TRAIL: recombinant, residues 114-281 of the soluble domain of human TRAIL (BIOMOL)						approximately eight-fold	two-fold	a greater proportion of cells contained a sub-diploid level of DNA	greater than additive	approximately 60%	a comparable level of DNA fragmentation	a modest decline	still demonstrable	more extensive caspase processing and PARP degradation; also recorded: a higher degree of processing	minor processing; also recorded: little detectable processing

— patent US20030008857A1, “Photodynamic therapy (PDT) in combination with factors that bind cell surface apoptosis-inducing receptors” (priority 1999, published 2003)
